{
  "source": "patent US6555583B2",
  "about": "“Therapies for treating pulmonary diseases” (SmithKline Beecham Corporation, priority 1998, dated 2003)",
  "origin": "cited, not measured here",
  "settings": "rolipram developed as an antidepressant",
  "data": [
    {"smiles": "COc1ccc(C2CNC(=O)C2)cc1OC1CCCC1", "note": "(stereo not shown) [rolipram]", "values": [
      {"measurement": "side effects in clinical studies", "value": "psychotropic activity and produces gastrointestinal effects"}
    ]}
  ]
}
